Experimental data as given in ChEMBL document CHEMBL1201862, “PubChem BioAssay data set” (2004).
The source made the active and inactive calls.

How the values were obtained:
Steroidogenic factor 1 = Steroidogenic factor 1 (Homo sapiens, UniProt Q13285); experiment: Counterscreen for inverse agonists of the liver receptor homolog-1 (LRH-1; NR5A2): Luminescence-based cell-based high throughput dose response assay to identify inverse agonists of the Steroidogenic Factor 1 Nuclear Receptor (SF1; NR5A1).; format: functional
[1] = nonselective StAR promoter luciferase inhibitors – cell-based, luminescence, luciferase reporter, counter-screen for LRH-1 inverse agonist project, dose response (AID 651969); format: functional
[2] = target: Nuclear receptor subfamily 5 group A member 2 (Homo sapiens, UniProt O00482); format: functional, cell-based;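 also: HEK293T cells transfected with LRH-1 and a StAR promoter luciferase reporter; potency for inhibitors that lower LRH-1 driven reporter light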
Vero = experiment: viability of Vero cells under compound – cytotoxicity control for flavivirus capping enzyme inhibitors (AID 588742); format: functional; details: Chlorocebus sabaeus
[3] = target: Photoreceptor-specific nuclear receptor (Homo sapiens, UniProt Q9Y5X4); format: functional, cell-based;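 also: CHO-S cells with Gal4-NCOR and VP16-NR2E3 two-hybrid luciferase reporter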
Genome polyprotein = Genome polyprotein (dengue virus type 2, UniProt P29990); experiment: flavivirus cap methylation enzyme inhibition – biochemical, confirmation dose response, primary screen (AID 588689); format: functional
HeLa = experiment: ATP-based viability loss in HeLa cells – cell-based, CellTiter-Glo luminescence, cherry-pick samples, cytotoxicity control for MITF activator project, dose response (AID 540259); format: functional; details: Homo sapiens
[4] = target: Mitochondrial peptide methionine sulfoxide reductase (Bos taurus, UniProt P54149); format: functional;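 also: absorbance read-out, biochemical high-throughput dose-response screen for MsrA inhibitors, confirmatory; recombinant bovine MsrA coupled to E. coli TrxB with NADPH and selenocystamine; potency is for inhibitors of MsrA activity on DMSO substrate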
H4 = experiment: Luminescence Cell-Based Dose Response HTS to Identify Activators of 5'UTR Stem-Loop Driven Prion Protein mRNA Translation in H4 Neuroglioblastoma Cells. [Related pubchem assays: 1829 (Project Summary), 1814 (Primary HTS)]; format: functional; details: Homo sapiens
[5] = Trypanosoma cruzi growth suppression in host cells – NIH3T3 host cells, beta-gal luminescence, confirmation (AID 2044); format: functional, cell-based;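 also: intracellular parasites grown in NIH/3T3 mouse fibroblasts as host cells; luminescent beta-galactosidase reporter signal from transgenic T. cruzi replicating inside host cells; inhibitors lower the luminescence signal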
[6] = target: T1, Probable nicotinate-nucleotide adenylyltransferase (Staphylococcus aureus (strain N315), UniProt P65502); format: functional, Staphylococcus aureus subsp. aureus N315;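 as to IC50 Mean: confirmatory dose-response retesting of NadD inhibitor hits first found in an ultra-high-throughput screen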
[7] = NIH3T3 cell viability loss – ATP luminescence, mouse fibroblasts, counter-screen, dose response (AID 2010); format: functional, cell-based;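 also: cells exposed to compound for about 90 hours before reading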
[8] = target: T1, Probable nicotinate-nucleotide adenylyltransferase; format: functional, Staphylococcus aureus subsp. aureus N315; details: read-out: IC50_Mean
[9] = target: Delta-type opioid receptor (Homo sapiens, UniProt P41143); experiment: Counterscreen for agonists of heterodimerization of the mu 1 (OPRM1) and delta 1 (OPRD1) opioid receptors: Luminescence-based cell-based high throughput dose response assay to identify agonists of OPRD1 homodimerization. [Related pubchem assays (depositor defined):AID504326, AID504355, AID504692, AID504904, AID504905]; format: functional
[10] = target: T2, Short transient receptor potential channel 4 (Mus musculus, UniProt Q9QUQ5); experiment: calcium entry via TRPC4 opening agents – cell-based, HEK293 TRPC4/mu-opioid, Fluo-4 calcium, dose response (AID 434937); format: functional
T2 sequence (Q9QUQ5 whole entry): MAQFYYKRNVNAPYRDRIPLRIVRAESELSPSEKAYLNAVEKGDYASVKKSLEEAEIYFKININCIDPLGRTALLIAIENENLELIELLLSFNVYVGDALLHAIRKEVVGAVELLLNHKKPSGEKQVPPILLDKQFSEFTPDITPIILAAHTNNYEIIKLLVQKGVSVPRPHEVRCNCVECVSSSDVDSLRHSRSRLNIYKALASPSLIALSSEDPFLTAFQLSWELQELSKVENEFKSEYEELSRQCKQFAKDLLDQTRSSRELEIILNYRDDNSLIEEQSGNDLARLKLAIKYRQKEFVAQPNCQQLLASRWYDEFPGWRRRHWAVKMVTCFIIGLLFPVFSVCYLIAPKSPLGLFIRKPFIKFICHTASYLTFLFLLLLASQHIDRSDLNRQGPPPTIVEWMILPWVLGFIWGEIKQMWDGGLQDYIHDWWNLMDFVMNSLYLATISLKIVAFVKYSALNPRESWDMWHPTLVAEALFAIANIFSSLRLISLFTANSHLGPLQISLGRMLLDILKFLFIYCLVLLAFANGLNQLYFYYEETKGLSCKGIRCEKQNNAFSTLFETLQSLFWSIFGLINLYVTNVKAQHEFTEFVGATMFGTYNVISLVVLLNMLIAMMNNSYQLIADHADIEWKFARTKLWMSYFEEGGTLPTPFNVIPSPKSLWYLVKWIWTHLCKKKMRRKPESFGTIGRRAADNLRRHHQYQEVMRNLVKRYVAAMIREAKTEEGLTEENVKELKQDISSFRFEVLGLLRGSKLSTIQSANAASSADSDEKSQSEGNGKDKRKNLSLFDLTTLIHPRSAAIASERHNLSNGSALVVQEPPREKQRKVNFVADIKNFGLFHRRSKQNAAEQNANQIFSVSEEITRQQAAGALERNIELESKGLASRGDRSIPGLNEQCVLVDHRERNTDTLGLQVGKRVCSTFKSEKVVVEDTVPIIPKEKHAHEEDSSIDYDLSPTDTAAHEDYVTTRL

Mu-type opioid receptor = Mu-type opioid receptor (Homo sapiens, UniProt P35372); experiment: Counterscreen for agonists of heterodimerization of the mu 1 (OPRM1) and delta 1 (OPRD1) opioid receptors: Luminescence-based cell-based high throughput dose response assay to identify agonists of OPRM1 homodimerization.; format: functional;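 also: U2OS cells expressing OPRM1 and beta-arrestin as split beta-galactosidase partners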
[11] = target: 5-hydroxytryptamine receptor 5A (Homo sapiens, UniProt P47898); experiment: Counterscreen for agonists of OPRM1-OPRD1 heterodimerization: luminescence-based cell-based high throughput dose response assay to identify agonists of 5-hydroxytryptamine (serotonin) 5A receptor (HTR5A). [Related pubchem assays (depositor defined):AID504326, AID504355, AID504692, AID504904, AID504905]; format: functional
Sequence of 5-hydroxytryptamine receptor 5A (P47898 whole entry): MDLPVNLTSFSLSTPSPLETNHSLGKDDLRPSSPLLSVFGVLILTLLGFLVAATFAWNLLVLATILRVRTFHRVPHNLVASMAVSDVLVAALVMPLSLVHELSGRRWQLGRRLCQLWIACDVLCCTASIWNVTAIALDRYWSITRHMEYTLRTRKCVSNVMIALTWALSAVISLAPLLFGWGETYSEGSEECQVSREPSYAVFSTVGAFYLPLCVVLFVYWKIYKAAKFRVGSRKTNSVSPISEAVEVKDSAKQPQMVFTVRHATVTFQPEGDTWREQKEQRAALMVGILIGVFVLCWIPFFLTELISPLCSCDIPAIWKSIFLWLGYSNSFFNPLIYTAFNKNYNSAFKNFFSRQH

T1 sequence (P65502 whole entry): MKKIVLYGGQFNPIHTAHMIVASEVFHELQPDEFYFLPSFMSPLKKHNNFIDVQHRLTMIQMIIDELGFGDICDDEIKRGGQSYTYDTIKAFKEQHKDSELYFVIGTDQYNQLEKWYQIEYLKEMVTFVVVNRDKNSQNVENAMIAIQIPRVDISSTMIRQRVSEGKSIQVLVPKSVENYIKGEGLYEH
Sequence of Genome polyprotein (P29990 2492-3391 limits assumed): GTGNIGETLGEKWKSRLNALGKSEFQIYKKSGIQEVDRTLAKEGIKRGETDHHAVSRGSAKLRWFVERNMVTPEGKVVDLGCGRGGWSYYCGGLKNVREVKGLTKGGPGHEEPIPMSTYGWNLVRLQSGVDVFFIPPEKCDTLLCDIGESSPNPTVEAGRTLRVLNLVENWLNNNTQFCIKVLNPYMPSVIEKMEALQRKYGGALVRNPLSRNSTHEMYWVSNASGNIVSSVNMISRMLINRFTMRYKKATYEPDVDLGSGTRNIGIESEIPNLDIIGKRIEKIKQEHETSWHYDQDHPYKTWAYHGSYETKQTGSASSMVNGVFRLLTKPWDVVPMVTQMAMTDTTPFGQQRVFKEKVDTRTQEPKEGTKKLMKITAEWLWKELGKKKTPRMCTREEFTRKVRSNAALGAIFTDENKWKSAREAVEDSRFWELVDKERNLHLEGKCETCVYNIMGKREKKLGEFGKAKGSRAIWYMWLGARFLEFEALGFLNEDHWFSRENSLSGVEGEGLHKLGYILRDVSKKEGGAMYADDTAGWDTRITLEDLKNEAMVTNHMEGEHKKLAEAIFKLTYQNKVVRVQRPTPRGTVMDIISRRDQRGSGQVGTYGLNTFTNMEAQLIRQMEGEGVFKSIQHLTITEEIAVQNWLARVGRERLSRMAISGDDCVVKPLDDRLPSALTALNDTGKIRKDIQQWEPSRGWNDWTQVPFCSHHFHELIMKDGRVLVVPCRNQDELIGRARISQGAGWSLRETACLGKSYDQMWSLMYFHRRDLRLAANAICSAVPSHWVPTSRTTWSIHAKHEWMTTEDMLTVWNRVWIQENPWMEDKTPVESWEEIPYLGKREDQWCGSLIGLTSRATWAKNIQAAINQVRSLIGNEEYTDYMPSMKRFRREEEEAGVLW
Sequence of Steroidogenic factor 1 (Q13285 whole entry): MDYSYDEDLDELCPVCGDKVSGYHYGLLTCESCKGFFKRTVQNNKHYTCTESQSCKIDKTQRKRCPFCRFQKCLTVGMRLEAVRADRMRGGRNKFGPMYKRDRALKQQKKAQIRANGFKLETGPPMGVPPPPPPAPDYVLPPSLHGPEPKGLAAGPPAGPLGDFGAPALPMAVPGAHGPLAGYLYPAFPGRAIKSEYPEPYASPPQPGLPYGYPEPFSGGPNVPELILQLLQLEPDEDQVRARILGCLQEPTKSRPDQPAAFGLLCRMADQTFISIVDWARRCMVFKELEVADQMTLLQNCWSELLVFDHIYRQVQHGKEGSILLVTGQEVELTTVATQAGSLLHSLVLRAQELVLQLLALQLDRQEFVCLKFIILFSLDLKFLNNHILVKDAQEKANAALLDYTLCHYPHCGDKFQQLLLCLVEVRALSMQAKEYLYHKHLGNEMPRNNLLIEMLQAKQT
Sequence of Delta-type opioid receptor (P41143 whole entry): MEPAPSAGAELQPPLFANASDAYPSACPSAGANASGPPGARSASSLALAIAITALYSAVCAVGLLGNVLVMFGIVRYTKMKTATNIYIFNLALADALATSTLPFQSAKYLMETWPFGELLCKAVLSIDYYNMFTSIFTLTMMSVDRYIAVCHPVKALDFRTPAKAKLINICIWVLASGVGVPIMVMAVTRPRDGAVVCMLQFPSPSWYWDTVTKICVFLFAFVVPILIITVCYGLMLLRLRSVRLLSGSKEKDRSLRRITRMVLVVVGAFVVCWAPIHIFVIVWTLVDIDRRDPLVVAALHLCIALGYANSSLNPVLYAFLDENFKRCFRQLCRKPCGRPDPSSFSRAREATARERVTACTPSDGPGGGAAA
Sequence of Nuclear receptor subfamily 5 group A member 2 (O00482 whole entry): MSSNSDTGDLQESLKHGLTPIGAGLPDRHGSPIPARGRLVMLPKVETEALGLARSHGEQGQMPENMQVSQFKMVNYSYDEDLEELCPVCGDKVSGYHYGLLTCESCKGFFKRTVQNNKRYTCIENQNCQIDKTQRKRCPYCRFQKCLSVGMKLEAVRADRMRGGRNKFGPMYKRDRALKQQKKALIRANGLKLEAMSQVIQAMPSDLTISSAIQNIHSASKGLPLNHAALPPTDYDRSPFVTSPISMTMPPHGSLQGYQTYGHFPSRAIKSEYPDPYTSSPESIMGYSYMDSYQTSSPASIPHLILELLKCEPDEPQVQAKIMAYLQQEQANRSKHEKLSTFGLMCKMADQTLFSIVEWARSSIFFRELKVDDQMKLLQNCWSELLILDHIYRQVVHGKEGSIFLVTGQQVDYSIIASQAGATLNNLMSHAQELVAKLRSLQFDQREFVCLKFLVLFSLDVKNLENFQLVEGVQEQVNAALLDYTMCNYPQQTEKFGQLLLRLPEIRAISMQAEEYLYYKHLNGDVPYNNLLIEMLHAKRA
Sequence of Mu-type opioid receptor (P35372 whole entry): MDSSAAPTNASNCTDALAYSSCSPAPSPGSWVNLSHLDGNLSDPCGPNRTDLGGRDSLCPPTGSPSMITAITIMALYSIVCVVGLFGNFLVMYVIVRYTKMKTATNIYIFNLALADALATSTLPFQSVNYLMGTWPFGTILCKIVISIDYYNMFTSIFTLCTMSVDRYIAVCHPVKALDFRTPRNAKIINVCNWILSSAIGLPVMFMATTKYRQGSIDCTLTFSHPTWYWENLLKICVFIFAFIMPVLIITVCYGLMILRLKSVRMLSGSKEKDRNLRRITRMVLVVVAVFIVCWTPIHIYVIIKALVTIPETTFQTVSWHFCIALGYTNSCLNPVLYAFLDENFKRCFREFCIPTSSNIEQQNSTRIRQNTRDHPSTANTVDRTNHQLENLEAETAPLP
Sequence of Mitochondrial peptide methionine sulfoxide reductase (P54149 whole entry): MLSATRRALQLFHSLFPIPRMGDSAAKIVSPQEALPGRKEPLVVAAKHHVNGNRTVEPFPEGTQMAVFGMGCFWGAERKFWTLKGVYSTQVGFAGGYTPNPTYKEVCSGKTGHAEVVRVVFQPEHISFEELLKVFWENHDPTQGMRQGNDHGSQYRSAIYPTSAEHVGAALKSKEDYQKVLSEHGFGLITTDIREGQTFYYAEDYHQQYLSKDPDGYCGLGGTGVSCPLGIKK
Sequence of Photoreceptor-specific nuclear receptor (Q9Y5X4 whole entry, the tested form may be a part): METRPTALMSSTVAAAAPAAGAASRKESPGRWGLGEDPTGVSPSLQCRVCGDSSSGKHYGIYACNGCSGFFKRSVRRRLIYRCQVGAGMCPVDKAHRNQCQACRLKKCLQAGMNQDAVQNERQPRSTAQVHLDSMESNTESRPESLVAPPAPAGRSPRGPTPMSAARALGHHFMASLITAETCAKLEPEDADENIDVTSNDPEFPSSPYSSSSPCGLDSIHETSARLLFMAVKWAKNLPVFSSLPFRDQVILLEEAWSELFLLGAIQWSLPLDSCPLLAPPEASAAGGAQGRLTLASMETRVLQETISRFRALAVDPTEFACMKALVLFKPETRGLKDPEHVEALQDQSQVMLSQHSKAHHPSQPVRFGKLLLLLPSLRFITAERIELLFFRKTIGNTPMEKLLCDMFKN

In the case of `CC(=O)Nc1ccc(NC(=O)COC(=O)Cc2c[nH]c3ccccc23)cc1`, the IC50 (Steroidogenic factor 1) was 2.07 µM (active), the IC50 [1] was 35.9 µM (inactive) and the IC50 [2] was 2.64 µM (active).

In the case of `Cc1ccc([C@@H]2CC=C(C(=O)O)[C@H](c3ccc(C(C)(C)C)cc3)N2S(=O)(=O)c2ccc(C)cc2)cc1`, the CC50 (Vero) was > 40 µM (active), the IC50 [3] was 5.74 µM (active) and the IC50 (Genome polyprotein) was 39.8 µM (active).

In the case of `CC(NS(=O)(=O)c1cccc(Cl)c1)C(=O)Nc1ccc(-c2nc3ccccc3s2)cc1` (stereo not drawn), the AC50 (HeLa) was > 350 µM (inactive).

For `Cc1ccc(NC(=O)c2ccccc2Cl)c(Cl)c1`, the AC50 (HeLa) was 84.8 µM (active).

For `Cc1ccc(Nc2c([N+](=O)[O-])nn(-c3ccccc3)[n+]2[O-])c(C)c1`, the IC50 [4] was 155 µM (inactive) and the EC50 (H4) was 9.37 µM (active).

With `COc1ccc(-c2cc(C(=O)Nc3cccc(S(=O)(=O)NCc4ccco4)c3)c3ccccc3n2)cc1OC` the EC50 [5] was 1.64 µM (active), the IC50 [6] was 13.8 µM (active) and the EC50 [7] was > 60 µM (not active). The IC50 [8] was 25.3 µM (active).

In the case of `CCOC(=O)C1(CCOC)CCN(Cc2ccccc2-c2ccco2)CC1`, the EC50 [9] was > 92.5 µM (inactive), the EC50 [10] was 0.299 µM (active) and the EC50 (Mu-type opioid receptor) was > 92.5 µM (inactive). For the same compound, the EC50 [11] was > 92.5 µM (inactive).
